Legend:
PANC-1 cells [1] = settings: cited from earlier work
BxPC-3 cell line = settings: BxPC-3, concentration-dependent; cited from earlier work
Capan-2 cell line = settings: Capan-2, concentration-dependent; cited from earlier work
MIA PaCa-2 cells [2] = test: MTT cell viability assay, MIA PaCa-2; type: cell-based, human; settings: for EC50: Homo sapiens, MIA PaCa-2, 72 h, 72 h, MTT
Experimental: (§1) Cell viability was tested using MTT (3-(4,5-dimethylthiazol-2-yl)-2,5-diphenyltetrazolium bromide; Sigma-Aldrich Co.) assay, as described previously Briefly, MIA PaCa-2 and PANC-1 cells were seeded in 96-well plates (Corning, NY, USA) in a volume of 100 μL (4000 cells/well). After 24 h incubation, the cells were treated with sunitinib and its derivatives. Only the medium without cells was used as a positive control, and the medium with 0.5% DMSO (Sigma-Aldrich Co.) served as a negative control. After 72 h the cells were incubated with the 0.5 mg/mL of MTT solution for the next 4 h. The coloured formazan product was dissolved in 100 μL DMSO. The absorbance was measured spectrophotometrically at wavelengths 570 and 630 nm. […] When determining the EC50 values of the compounds under hypoxic conditions, the growth medium was supplemented with 100 µM of CoCl2 solution (97%, Alfa Aesar, MA, USA).

PANC-1 cells [3] = test: MTT cell viability assay, PANC-1; type: cell-based, human; settings: for EC50: Homo sapiens, PANC-1, 72 h, 72 h, MTT
Experimental: as §1

human fibroblasts = test: MTT cell viability, human fibroblasts (selectivity); type: cell-based
[4] = system: MIA PaCa-2 and PANC-1 cells; test: MTT cell viability, both pancreatic cancer cell lines; type: cell-based, human; settings: for reduction of viability compared to sunitinib / reduction of cell viability: 1 µM; for reduction of viability compared to sunitinib: 72 h, both cancer cell lines; for reduction of cell viability: 72 h of incubation, at least one cell line; for activity on cell viability, comparison between cell lines: EC50 comparison MIA PaCa-2 vs PANC-1; for activity on cell viability, hypoxia compared with normoxia: EC50 comparison
Experimental: as §1

MIA PaCa-2 cells [5] = test: Clonogenic assay, MIA PaCa-2; type: cell-based, human; settings: for number and area of colonies: MIA PaCa-2, higher concentration (90% of EC50), normoxia and hypoxia
Experimental: (§2) Compound effect on cell colony formation and growth was established by clonogenic assay, as previously published. […] Cells were incubated in a humidified atmosphere containing 5% CO2 at 37 °C and grown for 8 days. After incubation, the cells were rinsed with PBS and fixed with 10% formaldehyde, methanol-free (ThermoFisher Scientific, Waltham, MA, USA) solution for 20 min. Then the cells were rinsed with PBS two more times, and cell colonies were stained with 0.1% aqueous crystal violet solution (Sigma-Aldrich Co.) for 20 min, followed by rinses with sterile deionized water to remove the excess dye. Photos of colonies were taken using the G:BOX gel documentation system (Syngene International Ltd., Bengaluru, India) and Genesys software (Syngene International Ltd.). The number of colonies and their area were calculated using GeneTools colony and cell counting software (Syngene International Ltd.) according to the manufacturer’s instructions. Cell colony area and number in control groups were normalized to 100%. The percentage of drug-treated colony area and number were compared to the control.

PANC-1 cells [6] = test: Clonogenic assay, PANC-1; type: cell-based, human; settings: for PANC-1 cell colony formation (number) compared to the control: 90% of EC50, normoxia; for number and area of colonies: PANC-1, higher concentration (90% of EC50), normoxia and hypoxia
Experimental: as §2

MIA PaCa-2 cells [7] = test: 'Wound healing' migration assay, MIA PaCa-2; type: cell-based, human; settings: for inhibition of migration, hypoxia compared with normoxia: MIA PaCa-2
Experimental: (§3) Cell migration was tested by the ‘wound’ healing assay, as described elsewhere. Briefly, MIA PaCa-2 and PANC-1 cells were seeded into 24-well plates (Corning). MIA PaCa-2 at a density of 80,000 cells/well and PANC-1 at a density of 60,000 cells/well in 500 μL of medium and incubated in a humidified atmosphere containing 5% CO2 at 37 °C for 1 day. Then the monolayers were scratched with a sterile 100 μL pipette plastic tip in the centre of the well. The old cell medium is aspirated, the wells are rinsed with 400 μL phosphate-buffered saline (PBS, Gibco). […] Photos of ‘wounds’ were taken every 24 h for 3 days and the compound effect was evaluated by measuring the size of the “wound” area. Images were analysed by TScratch software (CSE Lab, Zurich, Switzerland).

PANC-1 cells [8] = test: 'Wound healing' migration assay, PANC-1; type: cell-based, human; settings: for inhibition of migration, hypoxia compared with normoxia: PANC-1; for 'wound' area compared to the control: PANC-1, 0.35 μM
Experimental: as §3

PANC-1 cells [9] = system: PANC-1 cells; parameters: method as in PMID 15202007; settings: 10 μM; cited from earlier work
PANC-1 cell monolayer = settings: PANC-1, 1 μM, 24 h; cited from earlier work
[10] = MIA PaCa-2, hypoxia (100 µM CoCl2)
[11] = normoxia, higher concentrations (90% of EC50)

CN(C)C/C=C/C(=O)Nc1cc2c(Nc3ccc(F)c(Cl)c3)ncnc2cc1O[C@H]1CCOC1 [Afatinib]
cell colony formation (PANC-1 cells [1]; PANC-1, 0.25 to 2 μM): did not show an effect
cell colony formation (BxPC-3 cell line): inhibited cell colony formation
cell colony formation (Capan-2 cell line): inhibited cell colony formation

Cc1nc(Nc2ncc(C(=O)Nc3c(C)cccc3Cl)s2)cc(N2CCN(CCO)CC2)n1 [Dasatinib]
number of PANC-1 cell colonies (PANC-1 cells [1]; 10 μM): significantly reduced

COc1ccc(C2CC(c3ccc4ccccc4c3)=NN2C2=NC(=O)/C(=C3/C(=O)Nc4ccc(Cl)cc43)S2)cc1 (stereo not drawn) [EMAC4001]
EC50 (MIA PaCa-2 cells [2]; [10]): 100 ± 13 nM
EC50 (MIA PaCa-2 cells [2]; MIA PaCa-2, normoxia): 113 ± 8 nM
times more active than sunitinib (MIA PaCa-2 cells [2]; MIA PaCa-2, hypoxia): 35 times
times more active than sunitinib (MIA PaCa-2 cells [2]; MIA PaCa-2, normoxia): 24 times
EC50 (PANC-1 cells [3]; PANC-1, hypoxia (100 µM CoCl2)): 80 ± 5 nM
EC50 (PANC-1 cells [3]; PANC-1, normoxia): 98 ± 3 nM
times more active than sunitinib (PANC-1 cells [3]; PANC-1, hypoxia): 47 times
times more active than sunitinib (PANC-1 cells [3]; PANC-1, normoxia): 36 times
selectivity towards cancer cells compared to human fibroblasts (human fibroblasts; MIA PaCa-2 and PANC-1 vs fibroblasts): most selective compound
reduction of viability compared to sunitinib [4]: statistically significantly stronger reduced
reduction of cell viability [4]: 90%
activity on cell viability, comparison between cell lines [4]: more active in the PANC-1 cell line
MIA PaCa-2 cell colony growth, hypoxia compared with normoxia (MIA PaCa-2 cells [5]): stronger effect on the MIA PaCa-2 cell colony growth under hypoxia than normoxia
MIA PaCa-2 cell colony formation (MIA PaCa-2 cells [5]; 90% of EC50, normoxia): statistically significantly inhibited
number and size of cell colonies compared to sunitinib (MIA PaCa-2 cells [5]; MIA PaCa-2, 90% of EC50, normoxia and hypoxia): less of MIA PaCa-2 and PANC-1 cell colonies and they were smaller
number and area of colonies (MIA PaCa-2 cells [5]): significantly reduced the number and area of colonies
PANC-1 cell colony formation (number) compared to the control (PANC-1 cells [6]): inhibited the colony formation of PANC-1 cells
number and size of cell colonies compared to sunitinib (PANC-1 cells [6]; PANC-1, 90% of EC50, normoxia and hypoxia): less of MIA PaCa-2 and PANC-1 cell colonies and they were smaller
number and area of colonies (PANC-1 cells [6]): significantly reduced the number and area of colonies
inhibition of migration, hypoxia compared with normoxia (MIA PaCa-2 cells [7]): more than in normoxia
cell migration (MIA PaCa-2 cells [7]; [11]): inhibited cell migration
inhibition of migration, hypoxia compared with normoxia (PANC-1 cells [8]): the effect was the opposite

COc1ccc(C2CC(c3ccc4ccccc4c3)=NN2C2=NC(=O)/C(=C3/C(=O)Nc4ccc(I)cc43)S2)cc1 (stereo not drawn) [EMAC4006]
reduction of viability compared to sunitinib [4]: statistically significantly stronger reduced
reduction of cell viability [4]: 90%
activity on cell viability, comparison between cell lines [4]: inhibited more efficiently the cell viability of the MIA PaCa-2 cell line
MIA PaCa-2 cell colony formation (MIA PaCa-2 cells [5]; 90% of EC50, normoxia): statistically significantly inhibited
PANC-1 cell colony formation (number) compared to the control (PANC-1 cells [6]): inhibited the colony formation of PANC-1 cells
inhibition of migration, hypoxia compared with normoxia (MIA PaCa-2 cells [7]): less than under normoxia
cell migration (MIA PaCa-2 cells [7]; [11]): inhibited cell migration
inhibition of migration, hypoxia compared with normoxia (PANC-1 cells [8]): stronger under hypoxia than normoxia

COc1ccc(C2CC(c3ccc4ccccc4c3)=NN2C2=NC(=O)/C(=C3/C(=O)Nc4ccc(OC)cc43)S2)cc1 (stereo not drawn) [EMAC4007]
effect on viability of non-cancerous cells (human fibroblasts) (human fibroblasts): significantly reduce the viability of non-cancerous cells
reduction of viability compared to sunitinib [4]: statistically significantly stronger reduced
reduction of cell viability [4]: 90%

COc1ccc(C2CC(c3ccc4ccccc4c3)=NN2C2=NC(=O)/C(=C3/C(=O)Nc4ccc(C)cc43)S2)cc1 (stereo not drawn) [EMAC4008]
reduction of viability compared to sunitinib [4]: statistically significantly stronger reduced
reduction of cell viability [4]: 90%
activity on cell viability, hypoxia compared with normoxia [4]: more active against both cell lines under hypoxia conditions
activity on cell viability, comparison between cell lines [4]: more active in the PANC-1 cell line
MIA PaCa-2 cell colony growth, hypoxia compared with normoxia (MIA PaCa-2 cells [5]): stronger effect on the MIA PaCa-2 cell colony growth under hypoxia than normoxia
inhibition of migration, hypoxia compared with normoxia (PANC-1 cells [8]): stronger under hypoxia than normoxia

COc1ccc(C2CC(c3ccc4ccccc4c3)=NN2C2=NC(=O)/C(=C3/C(=O)Nc4ccc(C(F)(F)F)cc43)S2)cc1 (stereo not drawn) [EMAC4009]
effect on viability of non-cancerous cells (human fibroblasts) (human fibroblasts): significantly reduce the viability of non-cancerous cells
reduction of viability compared to sunitinib [4]: statistically significantly stronger reduced
reduction of cell viability [4]: 90%

COc1ccc(C2CC(c3cccs3)=NN2C2=NC(=O)/C(=C3/C(=O)Nc4ccc(I)cc43)S2)cc1 (stereo not drawn) [EMAC4017]
reduction of viability compared to sunitinib [4]: statistically significantly stronger reduced
reduction of cell viability [4]: 90%
MIA PaCa-2 cell colony growth, hypoxia compared with normoxia (MIA PaCa-2 cells [5]): stronger effect on the MIA PaCa-2 cell colony growth under hypoxia than normoxia
MIA PaCa-2 cell colony formation (MIA PaCa-2 cells [5]; hypoxia): significantly reduced the MIA PaCa-2 cell colony formation
MIA PaCa-2 colony number compared to sunitinib (MIA PaCa-2 cells [5]; lower concentration (10% of EC50), hypoxia): stronger than sunitinib
inhibition of migration, hypoxia compared with normoxia (MIA PaCa-2 cells [7]): less than under normoxia
inhibition of migration, hypoxia compared with normoxia (PANC-1 cells [8]): stronger under hypoxia than normoxia

COc1cc2ncnc(Nc3ccc(F)c(Cl)c3)c2cc1OCCCN1CCOCC1 [Gefitinib]
reduction of viability of PANC-1 cells (PANC-1 cells [9]): 78%

CCN(CC)CCNC(=O)c1c(C)[nH]c(/C=C2\C(=O)Nc3ccc(F)cc32)c1C [sunitinib, Sunitinib malate]
EC50 (MIA PaCa-2 cells [2]; [10]): 3500 ± 300 nM
EC50 (MIA PaCa-2 cells [2]; MIA PaCa-2, normoxia): 2670 ± 210 nM
decrease of PANC-1 cell viability (PANC-1 cells [3]; 3.5 μM): up to 50%
EC50 (PANC-1 cells [3]; PANC-1, hypoxia (100 µM CoCl2)): 3730 ± 210 nM
EC50 (PANC-1 cells [3]; PANC-1, normoxia): 3530 ± 210 nM
activity on cell viability, hypoxia compared with normoxia [4]: more active under normoxia than hypoxia conditions
activity on cell viability, comparison between cell lines [4]: inhibited more efficiently the cell viability of the MIA PaCa-2 cell line
MIA PaCa-2 cell colony formation (MIA PaCa-2 cells [5]; 90% of EC50, normoxia): statistically significantly inhibited
number and area of colonies (MIA PaCa-2 cells [5]): significantly reduced the number and area of colonies
number and area of colonies (PANC-1 cells [6]): significantly reduced the number and area of colonies
inhibition of migration, hypoxia compared with normoxia (MIA PaCa-2 cells [7]): more under hypoxic conditions
cell migration (MIA PaCa-2 cells [7]; MIA PaCa-2, 10 and 90% of EC50, normoxia and hypoxia (except lower concentration under normoxia)): statistically significantly inhibited cell migration
inhibition of migration, hypoxia compared with normoxia (PANC-1 cells [8]): more under hypoxic conditions
'wound' area compared to the control (PANC-1 cells [8]; 24 h): no difference
'wound' area compared to the control (PANC-1 cells [8]; 48 h and 72 h): significantly larger
cell migration (PANC-1 cells [8]; PANC-1, 10 and 90% of EC50, normoxia and hypoxia): statistically significantly inhibited cell migration
'wound' area (PANC-1 cells [8]; PANC-1 monolayer, hypoxia, after 72 h): 68.81 ± 5.24%
change in 'wound' area compared to the control (PANC-1 cell monolayer): did not establish a significant difference

Source: publication PMC10049421, “Anticancer Activity of Sunitinib Analogues in Human Pancreatic Cancer Cell Cultures under Normoxia and Hypoxia” (International Journal of Molecular Sciences, 2023)
